Assay results published in patent US12129266B2, “Substituted pyrazolo[1,5-a]pyridine compound, composition containing the same and use thereof” (Shenzhen TargetRx, Inc., priority 2018, dated 2024).

How the values were obtained:
[1] = Metabolic stability evaluation, liver microsome assay (MLM); type: in vitro ADME; conditions: mouse, mouse liver microsomes, pH 7.4, mice liver microsomes 0.5 mg/mL, compound 1 μM, NADPH, 37° C.; for half-life at 1 μM: read-out: MLM t1/2
Method: (§1) Microsome assay: human liver microsomes (HLM): 0.5 mg/mL, Xenotech; rat liver microsomes (RLM): 0.5 mg/mL, Xenotech; mice liver microsomes (MLM): 0.5 mg/mL, Xenotech; coenzyme (NADPH/NADH): 1 mM, Sigma Life Science; magnesium chloride: 5 mM, 100 mM phosphate buffer (pH is 7.4).
(§2) Preparation of stock solution: a certain amount of powder of the example compound and the reference compound were accurately weighed, and dissolved to 5 mM with DMSO, respectively.
(§3) Preparation of phosphate buffer (100 mM, pH7.4): Pre-formulated 150 mL 0.5 M potassium dihydrogen phosphate and 700 mL 0.5 M dipotassium hydrogen phosphate solution were mixed, then the pH of the mixture was adjusted to 7.4 with 0.5 M dipotassium hydrogen phosphate solution. Before use, 5-fold dilution was made with ultra-pure water, and magnesium chloride was added to afford phosphate buffer (100 mM), which containing 100 mM potassium phosphate, 3.3 mM magnesium chloride, pH is 7.4.
(§4) NADPH regeneration system solution (containing 6.5 mM NADP, 16.5 mM G-6-P, 3 U/mL G-6-P D, 3.3 mM magnesium chloride) was prepared and placed on wet ice before use.
(§5) Preparation of stop solution: Acetonitrile solution containing 50 ng/mL propranolol hydrochloride and 200 ng/mL tolbutamide (internal standard). 25057.5 μL phosphate buffer (pH 7.4) was taken into a 50 mL centrifuge tube, and 812.5 μL human liver microsome was added, mixed well to afford liver microsome diluent with a protein concentration of 0.625 mg/mL. 25057.5 μL phosphate buffer (pH 7.4) was taken into a 50 mL centrifuge tube, and 812.5 μL SD rat liver microsome was added, respectively, mixed well to afford liver microsome diluent with a protein concentration of 0.625 mg/mL. 25057.5 μL phosphate buffer (pH 7.4) was taken into a 50 mL centrifuge tube, and 812.5 μL mice liver microsome was added, respectively, mixed well to afford liver microsome diluent with a protein concentration of 0.625 mg/mL.
(§6) Incubation of the sample: The stock solutions of the corresponding compounds were diluted to 0.25 mM with an aqueous solution containing 70% acetonitrile as working solutions for use. 398 μL of human liver microsome or rat liver microsome or mice liver microsome diluent was taken and added to a 96-well incubation plate (N=2), respectively, and 2 μL of 0.25 mM working solution was then added respectively, and mixed well.
(§7) Determination of metabolic stability: 300 μL of pre-chilled stop solution was added to each well of a 96-well deep well plate and the plate was placed on ice as a stop plate. The 96-well incubation plate and NADPH regeneration system were placed in a 37° C. water bath box, shook at 100 rpm, and pre-incubated for 5 min. 80 μL of incubation solution was taken from each well of the incubation plate and added to the stop plate, mixed well, and 20 μL of NADPH regeneration system solution was supplemented, the resulted solution was considered as sample at 0 min. Then 80 μL of NADPH regeneration system solution was added to each well of the incubation plate to start the reaction and started timing. The reaction concentration of the corresponding compound is 1 μM, and the protein concentration is 0.5 mg/mL. 100 μL reaction solution was taken at 10, 30, 90 min of reaction, respectively, and added into stop plate, the reaction was stopped with 3 min vortex. The stop plate was centrifuged at 5000×g, 4° C. for 10 min. 100 μL of supernatant was taken to a 96-well plate where 100 μL of distilled water was added in advance, mixed well, sample analysis was subjected by LC-MS/MS.
(§8) Data analysis: LC-MS/MS system was used to detect peak area of corresponding compound and internal standard, peak area ratio of compound and internal standard was calculated.
(§9) [formula] t1/2(min); CLint(μL/min/mg).

[2] = Metabolic stability evaluation, liver microsome assay (RLM); type: in vitro ADME, SD rat; conditions: Sprague-Dawley, pH 7.4, rat liver microsomes 0.5 mg/mL, compound 1 μM, NADPH, 37° C.; for half-life at 1 μM: read-out: RLM t1/2
Method: as §1, §2, §3, §4, §5, §6, §7, §8, §9

[3] = Metabolic stability evaluation, liver microsome assay (HLM); type: in vitro ADME; conditions: pH 7.4, human liver microsomes 0.5 mg/mL, compound 1 μM, NADPH, 37° C.; for half-life at 1 μM: read-out: HLM t1/2
Method: as §1, §2, §3, §4, §5, §6, §7, §8, §9

Ba/F3 parental = test: cells; conditions: Mus musculus, BaF3, 72 h, read-out: IC50 (nM) Ba/F3 parental
Ba/F3 KIF5B-RET = test: Cytotoxicity assay (CellTiter-Glo), Ba/F3 KIF5B-RET; type: cell-based; conditions: Mus musculus, BaF3; cell viability, 72 hours, CTG
Ba/F3 KIF5B-RET^V804M = test: Cytotoxicity assay (CellTiter-Glo), Ba/F3 KIF5B-RET V804M; type: cell-based; conditions: Mus musculus, BaF3; cell viability, 72 hours, CTG

Row | SMILES | microsomal CLint at 1 μM [1] [µL/min/mg] | half-life at 1 μM [1] [min] | microsomal CLint at 1 μM [2] [µL/min/mg] | half-life at 1 μM [2] [min] | microsomal CLint at 1 μM [3] [µL/min/mg] | half-life at 1 μM [3] [min] | IC50 (Ba/F3 parental) [nM] | IC50 (Ba/F3 KIF5B-RET) [nM] | IC50 (Ba/F3 KIF5B-RET^V804M) [nM]
1 | [2H]C([2H])([2H])Oc1ccc(CN2C3CC2CN(c2ccc(-c4cc(-c5cnn(C)c5)cn5ncc(C#N)c45)cn2)C3)cn1 [Example 1, 4-(6-(6-((6-(methoxy-d3)pyridin-3-yl)methyl)-3,6-diazabicyclo[3.1.1]heptan-3-yl)pyridin-3-yl)-6-(1-methyl-1H-pyrazol-4-yl)pyrazolo[1,5-a]pyridine-3-carbonitrile] | 73.2 | 18.9 | 51.5 | 26.9 | 87.5 | 15.8 | – | – | –
2 | [2H]C([2H])(c1ccc(OC)nc1)N1C2CC1CN(c1ccc(-c3cc(-c4cnn(C)c4)cn4ncc(C#N)c34)cn1)C2 [Example 2, 4-(6-(6-((6-methoxypyridin-3-yl)methyl-d2)-3,6-diazabicyclo[3.1.1]heptan-3-yl)pyridin-3-yl)-6-(1-methyl-1H-pyrazol-4-yl)pyrazolo[1,5-a]pyridine-3-carbonitrile] | 78.3 | 17.7 | 35.1 | 39.5 | 105 | 13.2 | – | – | –
3 | [2H]C([2H])([2H])Oc1ccc(C([2H])([2H])N2C3CC2CN(c2ccc(-c4cc(-c5cnn(C)c5)cn5ncc(C#N)c45)cn2)C3)cn1 [Example 3, 4-(6-(6-((6-(methoxy-d3)pyridin-3-yl)methyl-d2)-3,6-diazabicyclo[3.1.1]heptan-3-yl)pyridin-3-yl)-6-(1-methyl-1H-pyrazol-4-yl)pyrazolo[1,5-a]pyridine-3-carbonitrile] | 68.8 | 20.2 | 55.3 | 25.1 | 85.6 | 16.2 | – | – | –
4 | [2H]C([2H])([2H])Oc1ccc(CN2C3CC2CN(c2ccc(-c4cc(-c5cnn(C([2H])([2H])[2H])c5)cn5ncc(C#N)c45)cn2)C3)cn1 [Example 4, 4-(6-(6-((6-(methoxy-d3)pyridin-3-yl)methyl)-3,6-diazabicyclo[3.1.1]heptan-3-yl)pyridin-3-yl)-6-(1-(methyl-d3)-1H-pyrazol-4-yl)pyrazolo[1,5-a]pyridine-3-carbonitrile] | 63.5 | 21.8 | 49.1 | 28.2 | 97.9 | 14.2 | – | – | –
5 | [2H]C([2H])(c1ccc(OC)nc1)N1C2CC1CN(c1ccc(-c3cc(-c4cnn(C([2H])([2H])[2H])c4)cn4ncc(C#N)c34)cn1)C2 [Example 5, 4-(6-(6-((6-methoxypyridin-3-yl)methyl-d2)-3,6-diazabicyclo[3.1.1]heptan-3-yl)pyridin-3-yl)-6-(1-(methyl-d3)-1H-pyrazol-4-yl)pyrazolo[1,5-a]pyridine-3-carbonitrile] | 75.8 | 18.3 | 37.9 | 36.6 | 83.2 | 16.7 | – | – | –
6 | [2H]C([2H])([2H])Oc1ccc(C([2H])([2H])N2C3CC2CN(c2ccc(-c4cc(-c5cnn(C([2H])([2H])[2H])c5)cn5ncc(C#N)c45)cn2)C3)cn1 [Example 6, 4-(6-(6-((6-(methoxy-d3)pyridin-3-yl)methyl-d2)-3,6-diazabicyclo[3.1.1]heptan-3-yl)pyridin-3-yl)-6-(1-(methyl-d3)-1H-pyrazol-4-yl)pyrazolo[1,5-a]pyridine-3-carbonitrile] | 65 | 21.3 | 47.3 | 29.3 | 112 | 12.4 | – | – | –
7 | [2H]C([2H])([2H])n1cc(-c2cc(-c3ccc(N4CC5CC(C4)N5Cc4ccc(OC)nc4)nc3)c3c(C#N)cnn3c2)cn1 [Example 7, 4-(6-(6-((6-methoxypyridin-3-yl)methyl)-3,6-diazabicyclo[3.1.1]heptan-3-yl)pyridin-3-yl)-6-(1-(methyl-d3)-1H-pyrazol-4-yl)pyrazolo[1,5-a]pyridine-3-carbonitrile] | 76 | 18.2 | 11.3 | 122 | 11.1 | 124 | – | – | –
8 | [2H]C([2H])(c1ccc(OC)nc1)N1C2CC1CN(c1ccc(-c3cc(OC[C@H]4CNCCO4)cn4ncc(C#N)c34)cn1)C2 [Example 8] | 5.8 | 237 | 5.3 | 263 | 10.6 | 131 | 3360 | – | –
9 | [2H]C([2H])(c1ccc(OC)nc1)N1C2CC1CN(c1ccc(-c3cc(OCC(C)(C)O)cn4ncc(C#N)c34)cn1)C2 [Example 11, 6-(2-hydroxy-2-methylpropoxy)-4-(6-(6-((6-methoxypyridin-3-yl)methyl-d2)-3,6-diazabicyclo[3.1.1]heptan-3-yl)pyridin-3-yl)pyrazolo[1,5-a]pyridine-3-carbonitrile] | 44.8 | 30.9 | 11.7 | 118 | 96.2 | 14.4 | 3510 | 19.1 | 40.5
10 | [2H]C([2H])([2H])Oc1ccc(CN2C3CC2CN(c2ccc(-c4cc(OCC(C)(C)O)cn5ncc(C#N)c45)cn2)C3)cn1 [Example 12, 6-(2-hydroxy-2-methylpropoxy)-4-(6-(6-((6-(methoxy-d3)pyridin-3-yl)methyl)-3,6-diazabicyclo[3.1.1]heptan-3-yl)pyridin-3-yl)pyrazolo[1,5-a]pyridine-3-carbonitrile] | 44.9 | 30.8 | 10.1 | 137 | 93.1 | 14.9 | 5930 | 16 | 45.2
11 | [2H]C([2H])([2H])Oc1ccc(C([2H])([2H])N2C3CC2CN(c2ccc(-c4cc(OCC(C)(C)O)cn5ncc(C#N)c45)cn2)C3)cn1 [Example 13, 6-(2-hydroxy-2-methylpropoxy)-4-(6-(6-((6-(methoxy-d3)pyridin-3-yl)methyl-d2)-3,6-diazabicyclo[3.1.1]heptan-3-yl)pyridin-3-yl)pyrazolo[1,5-a]pyridine-3-carbonitrile] | 42.8 | 32.4 | 10.8 | 128 | 92.2 | 15 | > 10000 | 23.5 | 90
